Several values for one entry are separate records, joined by “and”; a condition that tells them apart may be missing. Equal values may be shown once. Where a name gives a salt, the structure may show the parent alone.
Tests used:
muscle cramps [1] = details: cited from earlier work
muscle cramps [2] = experiment: Case reports of patients with muscle cramps given magnesium alone or Biosil plus Promagnor (Examples 1-7); type: in vivo, human; details: patient, recurrent skeletal muscle cramps for 23 years; magnesium salt alone, 450 mg per day
From the text: A patient had recurrent muscle cramps during a period of 23 years. Muscle cramps occurred in skeletal muscles in hands, lower arms and legs, as well as in intercostal muscles. […] Muscle cramps occurred during the day as well as during the night, at a frequency of several cramps per day. As a consequence, the muscle cramps prohibited working as a doctor and further prohibited swimming or any other sport. […] This ineffective result is consistent with the conclusions of Garrison (supra) and Young (supra), that magnesium supplementation is not effective in the treatment of muscle cramps.
The patient thereafter switched to a therapy comprising on a daily basis 10 mg stabilized silicic acid, wherein the silicic acid was in the form of orthosilicic acid and/or oligomers. The stabilizer was choline, which was administered at a daily dose of 200 mg. This combination is sold as Biosil® and is commercially available from Bio Minerals N.V., Destelbergen, Belgium. Use was made of the solid form of Biosil®. Two capsules per day were administered. The magnesium dose was 450 mg, and was in the form of magnesium phosphate, magnesium citrate, or magnesium bicarbonate. It was a dosage form of magnesium commercially supplied as Promagnor™ by Merck Consumer Healthcare nv, Overijse, Belgium. […]

muscle cramps [3] = experiment: Cross-over trial in patients with frequent muscle cramps, cramp frequency recorded daily in a diary (Example 8); type: in vivo, human
Procedure: Female and male patients (age 33 to 86 years) experiencing frequent muscle cramps participated in a cross-over trial. The design of the cross-over trial is as follows: • Period 1:2 weeks orally 400 mg Mg/day (magnesium citrate), • Period 2:2 weeks orally 400 mg Mg/day+10 mg Si/day (magnesium citrate and choline-stabilized orthosilicic acid), • Period 3:2 weeks orally 200 mg Mg/day+5 mg Si/day (magnesium citrate and choline-stabilized orthosilicic acid). • Parameters: patients recorded the frequency of cramps daily in a diary.

muscle cramps [4] = experiment: Comparative trial in 11 patients with frequent muscle cramps, cramp frequency recorded daily in a diary (Example 9); type: in vivo, human
Procedure: Seven female and 4 male patients (age 27 to 86 years, mean age 56 years) experiencing frequent muscle cramps participated in a comparative trial with the following design: • Period 1: During 1 week 11 patients either • (a) continued with their oral magnesium supplement (6 patients), or • (b) changed from their oral magnesium treatment (2 patients) to an oral magnesium supplement of 180 mg Mg/day (magnesium malate), or • (c) changed from “no magnesium” pretreatment (3 patients) to an oral magnesium supplement of 180 mg Mg/day (magnesium malate). • One patient had taken quinine sulfate prior to period 1. • Period 2: all patients (n=11) took 4 weeks 360 mg Mg/day (magnesium malate)+10 mg Si/day (choline-stabilized orthosilicic acid, ch-OSA®) • Parameters: patients recorded daily the frequency of cramps in a diary.

Which “effect on symptom scores” value (muscle cramps [1]; Class I clinical study, versus placebo) does the source give for NCC1(CC(=O)O)CCCCC1 [Gabapentin] here?
Its value is “no difference was found between treatment and placebo with respect to any symptom score”.

Which “effect on intensity of cramps” value (muscle cramps [1]; Class II study) does the source give for COc1ccc([C@@H]2Sc3ccccc3N(CCN(C)C)C(=O)[C@@H]2OC(C)=O)cc1 [diltiazem hydrochloride] here?
The value was “no effect on the intensity of cramps”.

For O=S(=O)([O-])[O-].[Mg+2] [magnesium sulphate], which “effect on number of cramps, severity, duration, sleep disturbance” value (muscle cramps [1]; Class II study, 300 mg dose, versus placebo) is on record?
Its value is “not superior to placebo for number of cramps, severity, duration or sleep disturbance”.

What does the source list for [Mg] [magnesium]?
effect on recurrent muscle cramps (muscle cramps [2]): not effective and did not provide any relief or inhibition of the muscle cramps; conclusion on frequency of cramps (muscle cramps [3]; magnesium alone versus combination with bioavailable silicon supplement, Example 8): not effective in reducing the frequency of cramps compared to the combination; Number of cramps Mean ± SE (muscle cramps [4]; Week 1: own oral magnesium supplement or 180 mg Mg/day (magnesium malate), n=11): 18.9 ± 7.4^; conclusion on relief of muscle cramps (muscle cramps [4]; monotherapy of oral magnesium, Example 9): not effective in relieving muscle cramps; cramp prophylaxis (muscle cramps [1]; Garrison 2012 Cochrane review of seven trials, older adults with skeletal muscle cramps): unlikely that magnesium supplementation provides a clinically meaningful cramp prophylaxis to older adults; effect on leg cramps in pregnancy (muscle cramps [1]; Leal de Araújo 2020, oral magnesium supplementation during pregnancy): did not reduce the occurrence and frequency of episodes of leg cramps

For CCN(CC)CCOC(=O)C(Cc1cccc2ccccc12)CC1CCCO1 (stereo not drawn) [naftidrofuryl oxalate], which “effect on cramps and sleep disturbance” value (muscle cramps [1]; literature study) is on record?
The value was “no effect on the mean number of cramps, number of nights with cramps or sleep disturbance”.

What does the source list for C=C[C@H]1C[N@@]2CC[C@H]1C[C@H]2[C@H](O)c1ccnc2ccc(OC)cc12 [quinine]?
side effects (muscle cramps [1]; reported in the literature (Katzberg 2010; FDA alert 2012)): common and serious side effects; effect on idiopathic leg cramps (muscle cramps [1]; systematic reviews and randomized clinical trials (Young 2015), versus placebo): may reduce the frequency of idiopathic leg cramps at night compared to placebo

With magnesium citrate [Mg] as the molecule, how does the “cramps/day, individual patients” value (muscle cramps [3]; A: 2 weeks 400 mg Mg/day orally (magnesium citrate), patients 1-6, one value per patient) read?
Its value is 0.43 cramps/day (2×) and 1.07 cramps/day and 0.36 cramps/day and 1.79 cramps/day and 0.5 cramps/day.

And the “cramps/day, Mean” value (muscle cramps [3]; A: 2 weeks 400 mg Mg/day orally, mean of 6 patients)?
Its value is 0.76 cramps/day.

What about the “effect on number of cramps” value (muscle cramps [1]; Class II study, 900 mg) of the same molecule?
Its value is “could not conclude that there was a significant improvement in the number of cramps”.
